Among the data in patent publication US20110178041A1, “HETEROCYCLIC BIARYL DERIVATIVE AND PDE INHIBITOR COMPRISING SAME AS ACTIVE INGREDIENT” (priority 2008, published 2011) are IC50 values, retold here.

Each structure is given as a SMILES string. pIC50: −log10 of the molar value. Where only a bound is given, the exact number is not on record here.

For the assay, the target named is T1, PDE4B catalytic zone (PDE4Bcat) (Homo sapiens, UniProt Q07343).
T1 construct: made in house; host or cells: Sf9 insect cells (baculovirus, Bac-to-Bac / Gateway)
T1 sequence (Q07343 330-659 limits assumed): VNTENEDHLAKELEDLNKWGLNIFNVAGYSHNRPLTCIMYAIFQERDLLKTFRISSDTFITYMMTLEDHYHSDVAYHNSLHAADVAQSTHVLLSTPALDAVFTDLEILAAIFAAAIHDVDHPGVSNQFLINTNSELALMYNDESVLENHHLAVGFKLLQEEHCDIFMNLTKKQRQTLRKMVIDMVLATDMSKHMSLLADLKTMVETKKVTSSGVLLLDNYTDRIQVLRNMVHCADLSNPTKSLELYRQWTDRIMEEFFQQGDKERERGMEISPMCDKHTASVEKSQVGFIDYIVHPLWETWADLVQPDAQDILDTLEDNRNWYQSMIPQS
Description: Phosphodiesterase 4 inhibitory activity ([3H]-cAMP, recombinant PDE4Bcat). Type of assay: biochemical. Particulars: 30° C. 20 minutes, read-out: IC50 (μmol/L) PDE4.

Regarding `COc1ccc(-c2ccc3[nH]c(=O)ccc3c2)c2cc(C(F)(F)F)nn12` [Example 50, 6-(7-Methoxy-2-trifluoromethylpyrazolo[1,5-a]pyridin-4-yl)quinolin-2(1H)-one], the pIC50 was above 8.00.

Regarding `COc1ccc(-c2cc(=O)[nH]c3ccccc23)c2cc(C(F)(F)F)nn12` [Example 51, 4-(7-Methoxy-2-trifluoromethylpyrazolo[1,5-a]pyridin-4-yl)quinolin-2(1H)-one], the pIC50 is 7.00 to 8.00.

Consider `COc1ccc(-c2cccc3c(=O)[nH]ccc23)c2cc(C(F)(F)F)nn12` [Example 52, 5-(7-Methoxy-2-trifluoromethylpyrazolo[1,5-a]pyridin-4-yl)iso quinolin-1(2H)-one], for which the pIC50 was 7.00 to 8.00.

As for `COc1ccc(-c2ccc3cc[nH]c(=O)c3c2)c2cc(C(F)(F)F)nn12` [Example 54, 7-(7-Methoxy-2-trifluoromethylpyrazolo[1,5-a]pyridin-4-yl)iso quinolin-1(2H)-one], the pIC50 was above 8.00.

In the case of `COc1ccc(-c2ccc3c(c2)CCC(=O)N3)c2cc(C(F)(F)F)nn12` [Example 56, 6-(7-Methoxy-2-trifluoromethylpyrazolo[1,5-a]pyridin-4-yl)-3,4-dihydroquinolin-2(1H)-one], the pIC50 is 7.00 to 8.00.

With `COc1ccc(-c2ccc3c(c2)CC(=O)N3)c2cc(C(F)(F)F)nn12` [Example 57, 5-(7-Methoxy-2-trifluoromethylpyrazolo[1,5-a]pyridin-4-yl)indolin-2-one], the pIC50 is 7.00 to 8.00.

For `COc1ccc(-c2ccc3[nH]c(=O)ccc3c2)c2c(Cl)c(C(F)(F)F)nn12` [Example 61, 6-(3-Chloro-7-methoxy-2-trifluoromethylpyrazolo[1,5-a]pyridin-4-yl)quinolin-2(1H)-one], the pIC50 is above 8.00.

`CNc1ccc(-c2ccc3[nH]c(=O)ccc3c2)c2c(Cl)c(C(F)(F)F)nn12` [Example 65, 6-(3-Chloro-7-methylamino-2-trifluoromethylpyrazolo[1,5-a]pyridin-4-yl)quinolin-2(1H)-one]: the pIC50 is above 8.00.

For `CNc1ccc(-c2ccc3c(c2)CCNC3=O)c2c(Cl)c(C(F)(F)F)nn12` [Example 66], the pIC50 is above 8.00.

For the compound `CCc1ccc2c(-c3ccc4[nH]c(=O)ccc4c3)ccc(OC)c2n1` [Example 67, 2-Ethyl-8-methoxy-5,6′-biquinolin-2′(1′H)-one], the pIC50 was 7.00 to 8.00.

Take `COc1ccc(-c2ccc3[nH]c(=O)ccc3c2)c2ccc(C)nc12` [Example 68, 8-Methoxy-2-methyl-5,6′-biquinolin-2′(1′H)-one]: the pIC50 is 7.00 to 8.00.

For the compound `COc1ccc(-c2ccc3[nH]c(=O)ccc3c2)c2ccc(C(F)(F)F)nc12` [Example 69, 8-Methoxy-2-trifluoromethyl-5,6′-biquinolin-2′(1′H)-one], the pIC50 was 7.00 to 8.00.

With `COc1ccc(-c2ccc3[nH]c(=O)ccc3c2)c2nc(C(F)(F)F)nn12` [Example 70, 6-(5-Methoxy-2-trifluoromethyl[1,2,4]triazolo[1,5-a]pyridin-8-yl) quinolin-2(1H)-one], the pIC50 is above 8.00.

As to `COc1ccc(-c2ccc3[nH]c(=O)ccc3c2)c2sc(C(F)(F)F)nc12` [Example 71, 6-(4-Methoxy-2-trifluoromethylbenzo[d]thiazol-7-yl)quinolin-2(1H)-one], the pIC50 is above 8.00.

As to `COc1ccc(-c2ccc3[nH]c(=O)ccc3c2)c2c1OCNC2=O` [Example 72, 8-Methoxy-5-(2-oxo-1,2-dihydroquinolin-6-yl)-2H-benzo[e][1,3]oxazin-4-(3H)-one], the pIC50 is 7.00 to 8.00.

`COc1ccc(-c2ccc3[nH]c(=O)ccc3c2)c2c1OCC(=O)N2` [Example 74, 8-Methoxy-5-(2-oxo-1,2-dihydroquinolin-6-yl)-2H-benzo[b][1,4]oxazin-3(4H)-one]: the pIC50 was 7.00 to 8.00.

With `COc1ccc(-c2ccc3c(=O)[nH]ccc3c2)c2cccnc12` [Example 80, 6-(8-Methoxyquinolin-5-yl)isoquinolin-1(2H)-one], the pIC50 is 7.00 to 8.00.

Consider `CCc1ccc2c(-c3ccc4cc[nH]c(=O)c4c3)ccc(OC)c2n1` [Example 83, 7-(2-Ethyl-8-methoxyquinolin-5-yl)isoquinolin-1(2H)-one], for which the pIC50 is 7.00 to 8.00.

As to `COc1ccc(-c2ccc3[nH]c(=O)ccc3c2)c2nccnc12` [Example 86, 6-(8-Methoxyquinoxalin-5-yl)quinolin-2(1H)-one], the pIC50 was above 8.00.

As for `CCc1cc2c(-c3ccc4[nH]c(=O)ccc4c3)ccc(OC)n2n1` [Example 87, 6-(2-Ethyl-7-methoxypyrazolo[1,5-a]pyridin-4-yl)quinolin-2(1H)-one], the pIC50 is 7.00 to 8.00.

As for `COc1ccc(-c2ccc3[nH]c(=O)ccc3c2)c2cncnc12` [Example 88, 6-(8-methoxyquinazolin-5-yl)quinolin-2(1H)-one], the pIC50 was 7.00 to 8.00.

Take `COc1ccc(-c2ccc3[nH]c(=O)ccc3c2)n2cc(C(F)(F)F)nc12` [Example 90, 6-(8-Methoxy-2-trifluoromethylimidazo[1,2-a]pyridin-5-yl)quinolin-2(1H)-one]: the pIC50 is 7.00 to 8.00.

Consider `COc1ccc(-c2ccc3c(ccc(=O)n3C)c2)c2cc(C(F)(F)F)nn12` [Example 91, 6-(7-Methoxy-2-trifluoromethylpyrazolo[1,5-a]pyridin-4-yl)-1-methyl quinolin-2(1H)-one], for which the pIC50 is above 8.00.

For `CCOC(=O)Cn1c(=O)ccc2cc(-c3ccc(OC)n4nc(C(F)(F)F)cc34)ccc21` [Example 92, Ethyl 2-(6-(7-methoxy-2-trifluoromethylpyrazolo[1,5-a]pyridin-4-yl)-2-oxo-quinolin-2(1H)-yl)acetate], the pIC50 is 7.00 to 8.00.

As to `COc1ccc(-c2ccc3c(ccc(=O)n3CC(=O)O)c2)c2cc(C(F)(F)F)nn12` [Example 93, 2-(6-(7-Methoxy-2-trifluoromethylpyrazolo[1,5-a]pyridin-4-yl)-2-oxoquinolin-2(1H)-yl)acetic acid], the pIC50 is 7.00 to 8.00.

For the compound `COc1ccc(-c2ccc3c(ccc(=O)n3Cc3ccccc3)c2)c2cc(C(F)(F)F)nn12` [Example 94, 1-Benzyl-6-(7-methoxy-2-trifluoromethylpyrazolo[1,5-a]pyridin-4-yl)quinolin-2(1H)-one], the pIC50 is above 8.00.

For `COc1ccc(-c2ccc3[nH]c(=O)ccc3c2)c2cc(C(F)(F)F)sc12` [Example 111], the pIC50 was 7.00 to 8.00.

For `CCc1nc2c(OC)ccc(-c3ccc4[nH]c(=O)ccc4c3)c2o1` [Example 112, 6-(2-Ethyl-4-methoxybenzo[d]oxazol-7-yl)quinolin-2(1H)-one], the pIC50 was above 8.00.

As for `COc1ccc(-c2ccc3[nH]c(=O)ccc3c2)c2cc(C3CC3)nn12` [Example 114, 6-(2-Cyclopropyl-7-methoxypyrazolo[1,5-a]pyridin-4-yl)quinolin-2(1H)-one], the pIC50 is above 8.00.

As to `COc1ccc(-c2ccc3c(c2)CCC(=O)N3)c2c(Cl)c(C(F)(F)F)nn12` [Example 116, 6-(3-Chloro-7-methoxy-2-trifluoromethylpyrazolo[1,5-a]pyridin-4-yl)-3,4-dihydroquinolin-2(1H)-one], the pIC50 was 7.00 to 8.00.

As for `COc1ccc(-c2ccc3c(c2)CCC(=O)N3C)c2c(Cl)c(C(F)(F)F)nn12` [Example 117, 6-(3-Chloro-7-methoxy-2-trifluoromethylpyrazolo[1,5-a]pyridin-4-yl)-1-methyl-3,4-dihydroquinolin-2(1H)-one], the pIC50 was 7.00 to 8.00.

Take `COc1ccc(-c2ccc3[nH]c(=O)ccc3c2)c2[nH]c(C(F)(F)F)nc12` [Example 118, 6-(4-Methoxy-2-trifluoromethyl-1H-benzo[d]imidazol-7-yl)quinolin-2(1H)-one; or 6-(7-methoxy-2-trifluoromethyl-1H-benzo[d]imidazol-4-yl)quinolin-2(1H)-one]: the pIC50 was 7.00 to 8.00.

`COc1ccc(-c2ccc3[nH]c(=O)ccc3c2)c2cc(C(F)(F)F)oc12` [Example 119, 6-(7-Methoxy-2-trifluoromethylbenzofuran-4-yl)quinolin-2(1H)-one]: the pIC50 was above 8.00.

As to `COc1ccc(-c2ccc3[nH]c(=O)ccc3c2)c2cccnc12` [Example 120, 6-(8-Methoxyquinolin-5-yl)quinolin-2(1H)-one], the pIC50 is 7.00 to 8.00.

For `COc1ccc(-c2ccc3c(c2)CC(C)NC3=O)c2cc(C(F)(F)F)nn12` (centres unmarked) [Example 122, 6-(7-Methoxy-2-trifluoromethylpyrazolo[1,5-a]pyridin-4-yl)-3-methyl-3,4-dihydroisoquinolin-1(2H)-one], the pIC50 was 7.00 to 8.00.

Regarding `COc1ccc(-c2ccc3c(=O)[nH]cc(Cl)c3c2)c2c(Cl)c(C(F)(F)F)nn12` [Example 125, 4-Chloro-6-(3-chloro-7-methoxy-2-trifluoromethylpyrazolo[1,5-a]pyridin-4-yl)isoquinolin-1(2H)-one], the pIC50 was above 8.00.

With `COc1ccc(-c2ccc3c(=O)[nH]cc(Cl)c3c2)n2c(Cl)c(C(F)(F)F)nc12` [Example 126, 4-Chloro-6-(3-chloro-8-methoxy-2-trifluoromethylimidazo[1,2-a]pyridin-5-yl)isoquinolin-1(2H)-one], the pIC50 is above 8.00.

With `CNc1ccc(-c2ccc3c(ccc(=O)n3C)c2)c2c(Cl)c(C(F)(F)F)nn12` [Example 137], the pIC50 was above 8.00.

As for `CNc1ccc(-c2ccc3c(=O)[nH]cc(Cl)c3c2)c2cc(C(F)(F)F)nn12` [Example 138, 4-Chloro-6-(7-(methylamino)-2-trifluoromethylpyrazolo[1,5-a]pyridin-4-yl)isoquinolin-1(2H)-one], the pIC50 was above 8.00.

For `CNc1ccc(-c2ccc3c(=O)[nH]cc(Cl)c3c2)c2c(Cl)c(C(F)(F)F)nn12` [Example 139, 4-Chloro-6-(3-chloro-7-(methylamino)-2-trifluoromethylpyrazolo[1,5-a]pyridin-4-yl)isoquinolin-1(2H)-one], the pIC50 was above 8.00.

For the compound `Nc1ccc(-c2ccc3[nH]c(=O)ccc3c2)c2cc(C(F)(F)F)nn12` [Example 140, 6-(7-Amino-2-trifluoromethylpyrazolo[1,5-a]pyridin-4-yl)quinolin-2(1H)-one], the pIC50 is above 8.00.
